In brackets after ≈: the same amount, converted by molar mass. Read-outs that look alike come from different tables or passages of the source.
Assays:
[1] = tissue drug levels of free and liposomal vincristine (radioimmunoassay); assay type: in vivo, CD2 F1 mice; conditions: for concentration at 5 min / concentration at 0.25 h / concentration at 0.5 h / concentration at 1 h / concentration at 2 h / concentration at 4 h / concentration at 8 h / concentration at 24 h: mouse, iv, 1 mg/kg; for concentration at 0.25 h: 15'; for concentration at 0.5 h: 30'
Description: (§1) CD2 F1 mice were administered vincristine as a free drug at a dose of 1 mg kg^-1 and liposomal entrapped vincristine at a dose of 1 mg kg^-1 and 5 mg kg^-1 via a lateral tail vein. At sequential time points, four mice in each treatment group were sacrificed and specific tissues were isolated and assayed for drug levels by radioimmunoassay as adapted in our laboratories.

[2] = test system: non-Hodgkin's and Hodgkins lymphomas, acute lymphoblastic leukemia, Wilm's tumor, rhabdomyosarcoma, and neuroblastoma; conditions: in vivo; cited from earlier work
[3] = lethal toxicity in normal mice after single i.v. injection; assay type: in vivo, CD2 F1 mice
L1210 Leukemia = test: antitumor evaluation against L1210 leukemia in mice; assay type: in vivo, CD2 F1 mice; conditions: for % ILS (percentage of increase in life span) / Long Term Survivors (50 days) / Median Survival: single dose
Description: The L1210 leukemia was maintained by serial passage i.p. in DBA/2F1 female mice. For antitumor studies, 2×10^5 cells of L1210 leukemia were implanted i.p. in CD2 F1 male mice (22-25 g). […] Each drug treated group and saline treated leukemic control group was composed of eight mice. […] Data are expressed as % of ILS (percentage of increase in life span). Median life spans were calculated from grouped median survival times and % of increase in life was calculated as: [formula] Experiments were terminated on day 50. Mice alive on that day were termed "cures" and were included in the calculation of median survival time of treated mice. The saline treated or blank liposomes treated controls had the median survival of 11 days. Free vincristine at a dose of 2 mg kg^-1 provided a median survival of 14.5 days with a % ILS of 32 with 2/8 long-term survivals. […] In contrast, the doses of vincristine entrapped in liposomes provided a much higher therapeutic response in mice bearing L1210 leukemia. […] In addition, higher doses of vincristine administered in liposomes produced significant therapeutic response with majority of leukemia bearing mice surviving at day 50.
CD2 F1 mice were implanted intraperitoneally with 2 ×
10^5 leukemia cells and drug treatment was given intravenously on day

L1210 Leukemia cells = test: in vitro cytotoxicity against L1210 leukemia cells (trypan blue exclusion); assay type: cell-based; conditions: Mus musculus; L1210 murine leukemia cells; 24 h treatment at 37° C., counted at 48 and 72 hours
Description: L1210 Leukemia cells were grown in suspension in air with 5% CO2 in RPMI Medium 1640 supplemented with 10% fetal calf serum and gentamicin (50 μg/ml). Log phase cells (10 ml) at an innoculum of 1×10^5 cells/ml of medium in 25 cm^2 plastic flasks were treated with either free vincristine or liposomal entrapped vincristine at different doses for 24 hours at 37° C. After drug treatment, cells were transferred to Falcon tubes and centrifuged for 10 minutes at 600 rpm. The supernatant media were discarded and the cell pellet was washed 3 times with RPMI Media 1640. The final cell pellet was resuspended in 10 ml of RPMI media and transferred to 25 cm^2 plastic flasks and incubated at 37° C. in air with 5% CO2 for growth. At 48 and 72 hours, an aliquot of cells from each flask were taken and were counted for viability by trypan blue exclusion under microscope. The number of cells proliferating in each flask were determined with respect to control. FIG. 3 represents the percent survival of cells when treated with free vincristine or vincristine entrapped in liposomes.

[4] = plasma pharmacokinetics of free and liposomal vincristine (radioimmunoassay); assay type: in vivo, CD2 F1 mice
Description: as §1

[5] = total doses in excess of 2 mg; cited from earlier work
[6] = brain, brain, 1.0 mg, read-out: vincristine level, brain
[7] = kidney, kidney, 1.0 mg, read-out: vincristine level, kidney
[8] = liver, liver, 1.0 mg, read-out: vincristine level, liver
[9] = lung, lung, 1.0 mg, read-out: vincristine level, lung
[10] = spleen, spleen, 1.0 mg, read-out: vincristine level, spleen

Structure (SMILES): CC[C@]1(O)C[C@H]2CN(CCc3c([nH]c4ccccc34)[C@@](C(=O)OC)(c3cc4c(cc3OC)N(C=O)[C@H]3[C@@](O)(C(=O)OC)[C@H](OC(C)=O)[C@]5(CC)C=CCN6CC[C@]43[C@@H]65)C2)C1 [free vincristine, vincristine]
- levels of drug in brain, free compared with liposomal vincristine ([1]; brain, 1 or 5 mg kg^-1 liposomal): higher than liposomal vincristine
- drug level in liver ([1]; liver, 1 mg kg^-1, 8 hours): undetectable
- levels in lung, free compared with liposomal vincristine ([1]; lung, 1 mg kg^-1, different periods): comparable
- concentration at 5 min [1, 6]: 28 ng/g
- concentration at 0.25 h [1, 6]: 21 ng/g
- concentration at 0.5 h [1, 6]: 20 ng/g
- concentration at 1 h [1, 6]: 21 ng/g
- concentration at 2 h ([1]; brain, brain, 1.0 mg, 2h, read-out: vincristine level, brain): 21 ng/g
- concentration at 4 h [1, 6]: 29 ng/g
- concentration at 8 h [1, 6]: 29 ng/g
- concentration at 24 h [1, 6]: 19 ng/g
- concentration at 5 min [1, 7]: 65 ng/g
- concentration at 0.25 h [1, 7]: 64 ng/g
- concentration at 0.5 h [1, 7]: 62 ng/g
- concentration at 1 h [1, 7]: 47 ng/g
- concentration at 2 h ([1]; kidney, kidney, 1.0 mg, 2h, read-out: vincristine level, kidney): 47 ng/g
- concentration at 4 h [1, 7]: 20 ng/g
- concentration at 8 h [1, 7]: 18 ng/g
- concentration at 24 h [1, 7]: 2 ng/g
- concentration at 2 h ([1]; liver, liver, 1 mg kg^-1, 2 hours, read-out: drug level in liver): 50 ng/g
- concentration at 5 min [1, 8]: 200 ng/g
- concentration at 0.25 h [1, 8]: 161 ng/g
- concentration at 0.5 h [1, 8]: 121 ng/g
- concentration at 1 h [1, 8]: 84 ng/g
- concentration at 2 h ([1]; liver, liver, 1.0 mg, 2h, read-out: vincristine level, liver): 47 ng/g
- concentration at 4 h [1, 8]: 10 ng/g
- concentration at 5 min [1, 9]: 80 ng/g
- concentration at 0.25 h [1, 9]: 78 ng/g
- concentration at 0.5 h [1, 9]: 80 ng/g
- concentration at 1 h [1, 9]: 75 ng/g
- concentration at 2 h ([1]; lung, lung, 1.0 mg, 2h, read-out: vincristine level, lung): 77 ng/g
- concentration at 4 h [1, 9]: 64 ng/g
- concentration at 8 h [1, 9]: 58 ng/g
- concentration at 24 h [1, 9]: 4 ng/g
- concentration at 5 min [1, 10]: 83 ng/g
- concentration at 0.25 h [1, 10]: 84 ng/g
- concentration at 0.5 h [1, 10]: 72 ng/g
- concentration at 1 h [1, 10]: 86 ng/g
- concentration at 2 h ([1]; spleen, spleen, 1.0 mg, 2h, read-out: vincristine level, spleen): 112 ng/g
- concentration at 4 h [1, 10]: 112 ng/g
- concentration at 8 h [1, 10]: 61 ng/g
- concentration at 24 h [1, 10]: 43 ng/g
- antitumor activity [2]: substantial activity
- lethality ([3]; 2 mg kg^-1 i.v., to day 60): without any lethality
- mortality at 192 h ([3]; mouse, in vivo, iv, 3 mg kg^-1 i.v., read-out: mice dead by day 8): 90%
- % ILS (percentage of increase in life span) (L1210 Leukemia; 2.0 mg/kg i.v.): 32%
- Long Term Survivors (50 days) (L1210 Leukemia; 2.0 mg/kg i.v.): 2/8
- Median Survival (L1210 Leukemia; 2.0 mg/kg i.v.): 14.5 days
- death of tumor bearing mice (drug toxicity) (L1210 Leukemia; 3 mg kg^-1 i.v.): All the animals in this group were dead by day 10
- % ILS (percentage of increase in life span) (L1210 Leukemia; 3.0 mg/kg i.v.): -32%
- Long Term Survivors (50 days) (L1210 Leukemia; 3.0 mg/kg i.v.): 0/8
- Median Survival (L1210 Leukemia; 3.0 mg/kg i.v.): 7.5 days
- IC50 (L1210 Leukemia cells): 4 ng/mL (≈ 4.85 nM)
- apparent volume of distribution ([4]; i.v.): apparent large volume of distribution
- clearance of drug from plasma ([4]; i.v.): much faster clearance of drug from plasma
- concentration at 5 min ([4]; mouse, iv, 1 mg/kg, plasma, 1.0 mg, 5', read-out: plasma level): 630 ng/mL
- concentration at 0.25 h ([4]; mouse, iv, 1 mg/kg, plasma, 1.0 mg, 15', read-out: plasma level): 600 ng/mL
- concentration at 0.5 h ([4]; mouse, iv, 1 mg/kg, plasma, 1.0 mg, 30', read-out: plasma level): 200 ng/mL
- concentration at 1 h ([4]; mouse, iv, 1 mg/kg, plasma, 1.0 mg, 1h, read-out: plasma level): 100 ng/mL
- concentration at 2 h ([4]; mouse, iv, 1 mg/kg, plasma, 1.0 mg, 2h, read-out: plasma level): 50 ng/mL
- Cmax at 5 min ([4]; mouse, plasma, iv, 1 mg kg^-1 i.v., 5 minutes, read-out: peak plasma level at 5 minutes): 620 ng/mL
- neurotoxicity [5]: often associated with a progressive and disabling neurotoxicity
